The record followed here is PubChem BioAssay (NCI).

Several values for one entry are separate records, joined by “and”; a condition that tells them apart may be missing. Identical values can stand only once.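 Assay format: 96-well plates, 48-hour exposure. At the GI50, growth is halved. TGI: total growth inhibition.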 Where only a bound is given, the exact number is not on record here.

What all share (assay): growth of human tumour cells (NCI), 48 h
In assay [1] the test system is SNB-75 CNS.
Assay [2] concerns TK-10 renal.
Assay [3] deals with DLD-1 colon.
The test system of assay [4] is NCI-H23 lung.
Assay [5] has as its system SW-620 colon.
Assay [6] deals with NCI-H522 lung.
Assay [7] concerns A549 NSCLC.
In assay [8] the test system is MALME-3M melanoma.
For assay [9], the system named is LXFL 529 NSCLC.
The subject of assay [10] is SR leukemia.

In the case of `C[N+](C)(C)CC1CCCCC1=O` (stereo unspecified), the TGI in assay [1] is 81.2 µM; in assay [2], above 100 µM; in assay [3] it was 39.2 µM; in assay [4], 40.8 µM; in [5], 29.7 µM; in assay [6] it was 36.2 µM. Also, the TGI in assay [7] is above 100 µM; in [8], 38.6 µM.
For the compound `N=c1c2ccccc2sc2nc3ccccc3n12`, the TGI in assay [2], in [3], in assay [4], in assay [5], in assay [9] and in assay [6] was above 100 µM each time. The TGI in assay [10], in assay [7] and in assay [8] was above 100 µM in each case.
Take `O=c1cc(-c2ccccc2)[nH]c2cc(F)cc(F)c12`: the TGI in assay [1] was 46.9 µM; in assay [2] it was above 100 µM; in assay [3], above 100 µM; in assay [4], above 100 µM; in assay [5], above 100 µM; in [9], above 100 µM. Also, the TGI in assay [6] was 35.3 µM; in assay [10], above 100 µM; in assay [7], above 100 µM; in assay [8] it was 79.4 µM.
With `COc1ccc(/C=C(\NC(=O)c2ccccc2)c2nc3ccccc3[nH]2)cc1OC`, the TGI in assay [1], in [2], in assay [3], in [4], in [5] and in [9] was above 100 µM in each case. Also, the TGI in assay [6], in assay [10], in assay [7] and in [8] was above 100 µM in each case.
For the compound `CC(=O)OC(C(=O)[O][Sn]([CH3])([CH3])[CH3])c1ccccc1` (stereo unspecified), the GI50 is above 100 µM in assay [1]; above 100 µM in assay [2]; above 100 µM in assay [3]; above 100 µM in assay [4]; above 100 µM in [5]; 99.5 µM in [9]. Moreover, the GI50 in assay [6] is 19.9 µM; in [10], above 100 µM; in assay [7], above 100 µM; in assay [8] it was above 100 µM. For the same compound, the TGI in [1], in assay [2], in assay [3], in assay [4], in [5] and in assay [9] was above 100 µM each time. Further, the TGI in [6] is 62.6 µM; in assay [10], above 100 µM; in assay [7], above 100 µM; in assay [8], above 100 µM.
Consider `CC1(C)OC(=S)N(c2ccccc2)C12C=Cc1cc3ccccc3nc1S2` (stereo unspecified), for which the TGI is above 100 µM in assay [1]; above 100 µM in assay [2]; 97 µM in assay [3]; above 100 µM in assay [4]; above 100 µM in [5]; above 100 µM in assay [9]. The TGI in [6] is above 100 µM; in assay [10], 80.1 µM; in assay [7] it was above 100 µM; in assay [8], above 100 µM.
In the case of `Clc1ccccc1CN1COc2c(ccc3cccnc23)C1`, the TGI in assay [1] was 21.1 µM; in assay [2], 23.2 µM; in assay [3], 17.5 µM; in assay [4], 5.34 µM; in assay [5], 12.4 µM; in assay [6], 4.53 µM. Moreover, the TGI in [7] amounted to 14.2 µM; in [8], 16.3 µM.
Turning to `COc1ccc(/C=C2/C(=O)N(C(=O)c3ccccc3O)N=C2C)cc1`, the TGI in [2] was above 100 µM; in assay [3], above 100 µM; in [5], above 100 µM; in [9], above 100 µM; in assay [6], 8.51 µM; in [10], above 100 µM. The compound also came in with a TGI in assay [7] above 100 µM.
For `O=c1c2c(-c3ccccc3)c3ccccc3nc2cnn1-c1ccccc1`, the TGI in [1], in assay [2], in assay [4], in assay [5], in assay [9] and in [6] was above 100 µM in each case. Moreover, the TGI in [10], in [7] and in assay [8] was above 100 µM in each case.
Take `COc1cc(C(=O)N[C@H]2CCc3cc(OC)c(OC)c(OC)c3-c3ccc(SC)c(=O)cc32)cc(OC)c1OC`: the TGI is 48.6 µM in assay [1]; 25 µM and > 100 µM in assay [2]; 25 µM and > 100 µM in assay [3]; 25 µM and > 100 µM in assay [5]; 0.00974 µM in assay [6]; 25 µM and > 100 µM in assay [10]. Further, the TGI in assay [7] was 25 µM and > 100 µM; in assay [8], 17.5 µM and 14.9 µM. Moreover, the GI50 was 16.1 µM in assay [2], 0.0234 µM in assay [3], 0.017 µM in [7] and 0.0224 µM in [8].
On to `CCOP(=O)(OCC)/C(C#N)=C/c1ccccn1`, for which the TGI in assay [1], in assay [2], in assay [4], in [5], in assay [6] and in assay [10] was above 100 µM throughout. Also, the TGI in assay [7] and in assay [8] was above 100 µM throughout.
Take `CCOc1ccc(N=C(NC(=O)c2ccccc2)SC)cc1`: the TGI in assay [1], in assay [2], in [3], in assay [4], in [5] and in [9] was above 100 µM in each case. Further, the TGI in assay [10], in assay [7] and in [8] was above 100 µM each time.
On to `COc1cc(OCc2cccc(-c3ccccc3)c2C)cc(OC)c1CN1CCCCC1C(=O)NCCOCCOCCN` (stereo unspecified), for which the GI50 was 2.22 µM in assay [1]; 2.48 µM in assay [2]; 5.22 µM in [4]; 1.9 µM in assay [5]; 1.88 µM in assay [6]; 1.74 µM in assay [10]. In addition, the GI50 in [7] is 3.04 µM; in assay [8] it was 1.55 µM. Besides, the TGI in assay [1] amounted to 17.7 µM; in assay [2] it was 7.42 µM; in assay [4], 19.2 µM; in assay [5] it was 3.87 µM; in assay [6] it was 4.08 µM; in assay [10], 4.24 µM. The figures for the TGI in assay [7] and in assay [8] were 10.7 µM and 3.05 µM, respectively.
